Measurements as given in ChEMBL document CHEMBL5614389, “Design, synthesis, and biological evaluation of RSL3-based GPX4 degraders with hydrophobic tags” (Eur J Med Chem, 2024).
Active and inactive are the calls of the source. The rule behind the calls is not given here.

Columns and labels:
HT-1080 [1] = experiment: Antiproliferative activity against human HT-1080 cells assessed as inhibition of cell growth incubated for 72 hrs by MTT assay; format: functional, cell-based; conditions: HT-1080, 72 h
HT-1080 [2] = experiment: HyT activity at GPX4/E3 ligase in human HT-1080 cells assessed as degradation of GPX4 protein at 0.05 uM incubated for 24 hrs by Western blotting analysis relative to control; format: cell-based
HT-1080 [3] = experiment: HyT activity at GPX4/E3 ligase in human HT-1080 cells assessed as degradation of GPX4 protein at 0.2 uM incubated for 24 hrs by Western blotting analysis relative to control; format: cell-based
HT-1080 [4] = experiment: HyT activity at GPX4/E3 ligase in human HT-1080 cells assessed as degradation of GPX4 protein at 0.05 uM incubated for 12 hr by Western blotting analysis; format: cell-based
MDA-MB-231 [5] = experiment: Antiproliferative activity against human MDA-MB-231 cells assessed as inhibition of cell growth incubated for 72 hrs by MTT assay; format: functional, cell-based; conditions: MDA-MB-231, 72 h
786-0 = experiment: Antiproliferative activity against human 786-0 cells assessed as inhibition of cell growth incubated for 72 hrs by MTT assay; format: functional, cell-based; conditions: 786-0, 72 h
OS-RC-2 = experiment: Antiproliferative activity against human OS-RC-2 cells assessed as inhibition of cell growth incubated for 72 hrs by MTT assay; format: functional, cell-based; conditions: OS-RC-2, 72 h
HT-1080 [6] = experiment: HyT activity at GPX4/E3 ligase in human HT-1080 cells assessed as degradation of GPX4 protein incubated for 24 hrs by Western blotting analysis; format: cell-based
[7] = HyT activity at GPX4/E3 ligase in human HT-1080 cells assessed as degradation of GPX4 protein by measuring degradation concentration incubated for 24 hrs by Western blotting analysis; format: cell-based; conditions: HT-1080, 24 h
HT-1080 [8] = experiment: HyT activity at GPX4/E3 ligase in human HT-1080 cells assessed as degradation of GPX4 protein at 0.05 uM incubated for 7 hrs by Western blotting analysis; format: cell-based
HT-1080 [9] = experiment: HyT activity at GPX4/E3 ligase in human HT-1080 cells assessed as degradation of GPX4 protein at 0.05 uM incubated for 12 hrs by Western blotting analysis relative to control; format: cell-based
HT-1080 [10] = experiment: HyT activity at GPX4/E3 ligase in human HT-1080 cells assessed as degradation of GPX4 protein at 0.05 uM incubated for 20 hrs by Western blotting analysis; format: cell-based
HT-1080 [11] = experiment: HyT activity at GPX4/E3 ligase in human HT-1080 cells assessed as degradation of GPX4 protein at 0.05 uM by Western blotting analysis; format: cell-based; conditions: TDE = time-dependent effect
HT-1080 [12] = experiment: HyT activity at GPX4/E3 ligase in human HT-1080 cells assessed as degradation of GPX4 protein at 0.05 uM measured after 4 hrs in presence of cycloheximide by Western blotting analysis; format: cell-based
HT-1080 [13] = experiment: HyT activity at GPX4/E3 ligase in human HT-1080 cells assessed as degradation of GPX4 protein at 0.05 uM in presence of cycloheximide by Western blotting analysis; format: cell-based; conditions: TDE = time-dependent effect
HT-1080 [14] = experiment: HyT activity at GPX4/E3 ligase in human HT-1080 cells assessed as degradation of GPX4 protein at 0.05 uM incubated for 12 hr in presence of MG132 by Western blotting analysis; format: cell-based
HT-1080 [15] = experiment: HyT activity at GPX4/E3 ligase in human HT-1080 cells assessed as degradation of GPX4 protein at 0.05 uM incubated for 12 hr in presence of chloroquine by Western blotting analysis; format: cell-based
MDA-MB-231 [16] = experiment: Antiproliferative activity against human MDA-MB-231 cells assessed as fold increase in inhibition of cell growth incubated for 72 hrs by MTT assay relative to RSL3; format: functional
HT-1080 [17] = experiment: Induction of ferroptosis in human HT-1080 cells assessed as increase in lipid peroxidation at 0.2 to 0.5 uM incubated for 4 hrs by C11 BODIPY 581/591 dye based flow cytometry; format: functional, cell-based; conditions: dose 0.2-0.5 µM
HT-1080 [18] = experiment: Induction of ferroptosis in human HT-1080 cells assessed as increase in ROS production at 0.2 to 0.5 uM incubated for 4 hrs by DCFH-DA dye based flow cytometry; format: functional, cell-based; conditions: dose 0.2-0.5 µM
HT-1080 [19] = experiment: Induction of ferroptosis in human HT-1080 cells assessed as increase in lipid peroxidation at 0.2 to 0.5 uM incubated for 4 hrs in presence of ferrostatin-1 by C11 BODIPY 581/591 dye based flow cytometry; format: functional, cell-based; conditions: dose 0.2-0.5 µM
HT-1080 [20] = experiment: Induction of ferroptosis in human HT-1080 cells assessed as increase in ROS production at 0.2 to 0.5 uM incubated for 4 hrs in presence of ferrostatin-1 by DCFH-DA dye based flow cytometry; format: functional, cell-based; conditions: dose 0.2-0.5 µM

COC(=O)[C@H]1Cc2c([nH]c3ccccc23)[C@H](c2ccc(C(=O)NCCCCCCCCNC(=O)CC34CC5CC(CC(C5)C3)C4)cc2)N1C(=O)CCl
IC50 (HT-1080 [1]): 163 nM
Activity (HT-1080 [2]): 15%
Activity (HT-1080 [3]): 31%

COC(=O)[C@H]1Cc2c([nH]c3ccccc23)[C@H](c2ccc(C(=O)N3CCN(CCCCNC(=O)CC45CC6CC(CC(C6)C4)C5)CC3)cc2)N1C(=O)CCl
IC50 (HT-1080 [1]): 200 nM

COC(=O)[C@H]1Cc2c([nH]c3ccccc23)[C@H](c2ccc(C(=O)N3CCN(CCNC(=O)CC45CC6CC(CC(C6)C4)C5)CC3)cc2)N1C(=O)CCl
IC50 (HT-1080 [1]): 71 nM

COC(=O)[C@H]1Cc2c([nH]c3ccccc23)[C@H](c2ccc(C(=O)NCCOCCNC(=O)CC34CC5CC(CC(C5)C3)C4)cc2)N1C(=O)CCl
IC50 (HT-1080 [1]): 120 nM

COC(=O)c1ccc([C@H]2c3[nH]c4ccccc4c3C[C@H](C(=O)OC)N2C(=O)CCl)cc1
IC50 (HT-1080 [1]): 90 nM
Activity (HT-1080 [2]): 21%
Activity (HT-1080 [3]): 39%
Activity (HT-1080 [4]): Active
IC50 (MDA-MB-231 [5]): 129 nM
IC50 (786-0): 47 nM
IC50 (OS-RC-2): 82 nM

COC(=O)[C@H]1Cc2c([nH]c3ccccc23)[C@H](c2ccc(C(=O)NCCCCCCNC(=O)CC34CC5CC(CC(C5)C3)C4)cc2)N1C(=O)CCl
IC50 (HT-1080 [1]): 28 nM
Activity (HT-1080 [2]): 44%
Activity (HT-1080 [3]): 59%

COC(=O)[C@H]1Cc2c([nH]c3ccccc23)[C@H](c2ccc(C(=O)NCCCCCCCNC(C)=O)cc2)N1C(=O)CCl
IC50 (HT-1080 [1]): 380 nM
Activity (HT-1080 [2]): 5%
Activity (HT-1080 [3]): 6%

COC(=O)[C@H]1Cc2c([nH]c3ccccc23)[C@H](c2ccc(C(=O)NCCCCCNC(=O)CC34CC5CC(CC(C5)C3)C4)cc2)N1C(=O)CCl
IC50 (HT-1080 [1]): 64 nM
Activity (HT-1080 [2]): 20%
Activity (HT-1080 [3]): 38%

COC(=O)[C@H]1Cc2c([nH]c3ccccc23)[C@H](c2ccc(C(=O)NCCNC(=O)CC34CC5CC(CC(C5)C3)C4)cc2)N1C(=O)CCl
IC50 (HT-1080 [1]): 58 nM
Activity (HT-1080 [2]): 33%
Activity (HT-1080 [3]): 52%

COC(=O)[C@H]1Cc2c([nH]c3ccccc23)[C@H](c2ccc(C(=O)N3CCN(CCCCCCCCNC(=O)CC45CC6CC(CC(C6)C4)C5)CC3)cc2)N1C(=O)CCl
IC50 (HT-1080 [1]): 41 nM
Activity (HT-1080 [2]): 35%
Activity (HT-1080 [3]): 58%

COC(=O)[C@H]1Cc2c([nH]c3ccccc23)[C@H](c2ccc(C(=O)NCCOCCOCCOCCNC(=O)CC34CC5CC(CC(C5)C3)C4)cc2)N1C(=O)CCl
IC50 (HT-1080 [1]): 498 nM

COC(=O)[C@H]1Cc2c([nH]c3ccccc23)[C@H](c2ccc(C(=O)N3CCN(CCCCCCNC(=O)CC45CC6CC(CC(C6)C4)C5)CC3)cc2)N1C(=O)CCl
IC50 (HT-1080 [1]): 30 nM
Activity (HT-1080 [2]): 44%
Activity (HT-1080 [3]): 70%

COC(=O)[C@H]1Cc2c([nH]c3ccccc23)[C@H](c2ccc(C(=O)NCCOCCOCCNC(=O)CC34CC5CC(CC(C5)C3)C4)cc2)N1C(=O)CCl
IC50 (HT-1080 [1]): 64 nM

COC(=O)[C@H]1Cc2c([nH]c3ccccc23)[C@H](c2ccc(C(=O)NCCCCCCCCCCNC(=O)CC34CC5CC(CC(C5)C3)C4)cc2)N1C(=O)CCl
IC50 (HT-1080 [1]): 36 nM
Activity (HT-1080 [2]): 35%
Activity (HT-1080 [3]): 72%

COC(=O)[C@H]1Cc2c([nH]c3ccccc23)[C@H](c2ccc(C(=O)NCCCCCCCNC(=O)CC34CC5CC(CC(C5)C3)C4)cc2)N1C(=O)CCl
IC50 (HT-1080 [1]): 24 nM
Activity (HT-1080 [2]): 47%
Activity (HT-1080 [3]): 78%
Activity (HT-1080 [6]): Dose-Dependent Effect
DC50 [7]: 19 nM
Activity (HT-1080 [8]): Active
Activity (HT-1080 [9]): 50%
Activity (HT-1080 [10]): Active
Activity (HT-1080 [11]): Tde
Activity (HT-1080 [12]): Active
Activity (HT-1080 [13]): Tde
Activity (HT-1080 [14]): inactive
Activity (HT-1080 [15]): inactive
IC50 (MDA-MB-231 [5]): 32 nM
IC50 (786-0): 46 nM
IC50 (OS-RC-2): 72 nM
fold change (FC) (MDA-MB-231 [16]): 4
Activity (HT-1080 [17]): Active
Activity (HT-1080 [18]): Active
Activity (HT-1080 [19]): inactive
Activity (HT-1080 [20]): inactive

COC(=O)[C@H]1Cc2c([nH]c3ccccc23)[C@H](c2ccc(C(=O)NCCCCNC(=O)CC34CC5CC(CC(C5)C3)C4)cc2)N1C(=O)CCl
IC50 (HT-1080 [1]): 122 nM
Activity (HT-1080 [2]): 15%
Activity (HT-1080 [3]): 37%
